Where two headings read alike, the source gives them in different places.
Assays:
[1] = molecular target: T1, CAK complex (human Cdk7, human Cyclin H, MAT-1) (Homo sapiens, UniProt P50613); experiment: in vitro time-resolved-fluorescence assay for the CAK kinase activity; assay type: biochemical; conditions: compound 20 uM; for inhibition at 20 µM: read-out: CAK % inhib
T1 construct: made in house; host or cells: SF-900 insect cells co-infected with Flag-Cdk7 and Bab-Cyclin H baculoviruses
Text: Cyclin Dependent Kinase Activating Kinase (CAK) is a complex of proteins that phosphorylates a well-conserved threonine (Thr) residue in all mammalian cyclin dependent kinases (cdks). The CAK complex can also phosphorylate several components of the transcriptional machinery, such as the C-terminal domain (CTD) of RNA polymerase II in the TFIIH transcription complex. The CAK complex localizes to the nucleus, and is composed of three proteins: Cdk7, Cyclin H, and MAT-1. The exemplified method teaches the cloning and expression CAK subunits, particularly a human Cdk7 and a human Cyclin H. The method of the present invention exemplified herein is equally applicable to the cloning and expression of any CAK subunit, such as variants, structural or functional polymorphisms of the human Cdk7 or the human Cyclin H, or their orthologs in other animals such as rat, mouse, pig, dog and monkey.
The CAK complex was purified from co-infected SF-900 insect cells at 48 hours post infection by batch immunoaffinity purification. The infected cells were pelleted by centrifugation and lysed in 1/10 of the culture volume in a solution containing 50 mM Hepes pH 7.5, 10 mM MgCl2, 1 mM DTT, 10 mM Beta-Glycerol phosphate, 20 uM Na-oVO4, 0.2 mM PMSF and 1 μg/mL each of leupeptin, aprotinin, and pepstatin on ice. Cells were mechanically lysed by trituration through a 22-gauge needle followed by sonication or alternately by nitrogen cavitation. The lysed cells were centrifuged at 50,000×G for 1 hour at 4° C. to remove debris and the supernatant was applied to 1/10 volume of prewashed Flag-M2 immunoaffinity resin (Sigma). The CAK complex, by nature of the Flag tagged Cdk7 protein, was allowed to bind to the Flag antibody of the resin overnight at 4° C. with gentle rocking. The resin was washed 4 times with 5 resin volumes of lysis buffer and the bound proteins were eluted by competition with 0.5 mg/mL Flag peptide ([…], American Peptide Co, Inc., SEQ ID NO: 16) in a total of 2 resin volumes. To remove the Flag peptide, the eluted material was applied to PD-10 gel filtration columns (Pharmacia) under conditions recommended by the manufacturer.
Measurement of CAK kinase activity was accomplished using an antibody methodology in which a Europium labeled antibody binds preferentially to serine phosphorylated GST-CTD substrate. The long-lived europium label fluorescence allows a greater signal-to-noise ratio due to the delay in reading the emission wavelength, thereby eliminating signals from immediate fluorescence and fluorescent pharmaceutical screening compounds.
The time-resolved-fluorescence assay for the CAK kinase activity is performed as follows. In a well of a black glutathione coated 96 well micro titer plate (Pierce Chemical, No. 15360), the following reagents were added: 1) 25 ul substrate solution containing 500 ng purified GST-CTD in a buffer having 50 mM Hepes pH 7.5, 10 mM MgCl2, 1 mM DTT, 0.2 mM PMSF, 40 uM Na-oVO4, and 22 uM ATP (as a background control, the buffer, including ATP but not substrate was added); 2) 2.5 ul of screening compounds in a diluent containing 30% DMSO/25 mM Hepes pH7.5 (As a control, the diluent only was added. Typically the final concentration of compound is 1 uM); and 3) 250 ng CAK enzyme complex in enzyme buffer containing 25 ul of 50 mM Hepes pH 7.5, 10 mM MgCl2, 1 mM DTT, 0.2 mM PMSF, and 40 uM Na-oVO4. The micro titer plate was shaken for 2 minutes on a titer plate shaker and allowed to incubate at 30° C. for 20 minutes.
Subsequently, Kinase Stop Solution (75 mM EDTA, 0.2 mM PMSF, 1 mM DTT, 120 uM Na oVO4 in PBS) was added (50 ul/well). The plate was shaken for 2 minutes and incubated overnight at room temperature to allow substrate binding to the wells. The plate contents were flicked out, and the wells of the plate were washed 4 times with 350 ul of wash buffer (Delphia wash buffer, Perkin-Elmer, Inc.). The plate was tapped dry. […]

[2] = molecular target: T2, Focal Adhesion Kinase (full-length Flag-tagged human FAK) (Homo sapiens, UniProt Q05397); experiment: in vitro FAK ELISA kinase assay; assay type: biochemical; conditions: for inhibition at 10 µM: read-out: FAK % Inhib ave: 10 uM
T2 construct: a purified recombinant full-length Flag-tagged human FAK protein; Flag; made in house; host or cells: baculovirus infected insect cells
Protocol: Compound effects on the tyrosine kinase activity of Focal Adhesion Kinase were assessed with an in vitro FAK ELISA kinase assay. This assay measures the incorporation of phosphate from ATP into a FAK substrate protein using an antibody specific for phospho-tyrosine.
500 ng of FAKsubstrate, a purified recombinant fusion protein of GST and a 73 amino acid region surrounding the Tyr397 human FAK autophosphorylation site, was coated in a high-protein binding polystyrene 96 well plate overnight in a buffer containing 50 mM Hepes, pH 7.5, 150 mM NaCl, 0.1 mM Na-oVO4, 0.1 mM NaF and 1 protease inhibitor tablet/10 mL (Complete Mini-EDTA-free, Roche). The next day this solution was removed and the wells were incubated with 0.2% BSA in 50 mM Hepes, pH 7.5, 150 mM NaCl, 0.2 mM PMSF for 1 hour at 30° C. to block unoccupied protein binding sites. The wells were then washed with 50 mM Hepes, pH 7.5, 150 mM NaCl, 0.1% Tween 20. The kinase reaction was performed with 25 ng/well of FAK enzyme (a purified recombinant full-length Flag-tagged human FAK protein made in baculovirus infected insect cells) in 0.1 mL of a buffer containing 25 mM Hepes, pH 7.5, 5 mM MgCl2, 0.5 mM MnCl2, 10 uM NaoVO4, 0.2 mM PMSF. Compounds were added from 30% DMSO stock solutions for a screening concentration of 10 uM or IC50 determinations from 50 uM in half-log dilutions. The reaction is initiated with addition of ATP to a final concentration of 2 uM and incubated at 30° C. for 1 hour. Following the kinase reaction step, the wells were washed and incubated with 50 ng of Horseradish Peroxidase conjugated anti-phosphotyrosine antibody (PT-66 HRP, Sigma) in 0.1 mL wash buffer for 1 hour at 30° C. Wells were then washed and 0.1 mL HRP substrate, Tetra-methyl Benzidine (Sigma) was added and the color reaction allowed to proceed for 2-3 minutes followed by the addition of 0.1 mL of 1N H2SO4 to stop the HRP reaction. Percent inhibition of FAK kinase activity was calculated by comparing compound containing wells to wells treated with diluent only. Background was subtracted from all wells and was defined as the activity of FAK using 500 ng/well of BSA as a substrate. IC50 values were obtained using Prism data analysis software.

T1 sequence (P50613 with tags, fused parts or gaps): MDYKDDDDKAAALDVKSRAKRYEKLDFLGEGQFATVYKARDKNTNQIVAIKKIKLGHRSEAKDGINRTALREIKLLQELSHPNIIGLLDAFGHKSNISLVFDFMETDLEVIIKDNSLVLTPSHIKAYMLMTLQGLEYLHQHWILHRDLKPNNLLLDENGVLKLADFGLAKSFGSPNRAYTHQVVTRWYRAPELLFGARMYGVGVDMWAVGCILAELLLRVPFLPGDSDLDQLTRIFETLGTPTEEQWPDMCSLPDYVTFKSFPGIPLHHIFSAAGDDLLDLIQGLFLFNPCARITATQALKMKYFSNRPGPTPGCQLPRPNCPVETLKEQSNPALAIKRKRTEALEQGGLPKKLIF
T1 sequence (as listed by the source partner): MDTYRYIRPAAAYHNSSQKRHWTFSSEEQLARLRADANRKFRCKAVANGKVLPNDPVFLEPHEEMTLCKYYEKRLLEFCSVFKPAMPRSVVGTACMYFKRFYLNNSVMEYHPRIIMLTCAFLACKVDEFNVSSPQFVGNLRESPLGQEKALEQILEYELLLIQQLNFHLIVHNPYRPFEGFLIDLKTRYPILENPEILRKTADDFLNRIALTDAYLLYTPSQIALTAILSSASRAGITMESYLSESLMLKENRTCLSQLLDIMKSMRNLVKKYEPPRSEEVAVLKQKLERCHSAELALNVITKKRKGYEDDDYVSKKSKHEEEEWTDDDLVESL
T2 sequence (Q05397 whole entry): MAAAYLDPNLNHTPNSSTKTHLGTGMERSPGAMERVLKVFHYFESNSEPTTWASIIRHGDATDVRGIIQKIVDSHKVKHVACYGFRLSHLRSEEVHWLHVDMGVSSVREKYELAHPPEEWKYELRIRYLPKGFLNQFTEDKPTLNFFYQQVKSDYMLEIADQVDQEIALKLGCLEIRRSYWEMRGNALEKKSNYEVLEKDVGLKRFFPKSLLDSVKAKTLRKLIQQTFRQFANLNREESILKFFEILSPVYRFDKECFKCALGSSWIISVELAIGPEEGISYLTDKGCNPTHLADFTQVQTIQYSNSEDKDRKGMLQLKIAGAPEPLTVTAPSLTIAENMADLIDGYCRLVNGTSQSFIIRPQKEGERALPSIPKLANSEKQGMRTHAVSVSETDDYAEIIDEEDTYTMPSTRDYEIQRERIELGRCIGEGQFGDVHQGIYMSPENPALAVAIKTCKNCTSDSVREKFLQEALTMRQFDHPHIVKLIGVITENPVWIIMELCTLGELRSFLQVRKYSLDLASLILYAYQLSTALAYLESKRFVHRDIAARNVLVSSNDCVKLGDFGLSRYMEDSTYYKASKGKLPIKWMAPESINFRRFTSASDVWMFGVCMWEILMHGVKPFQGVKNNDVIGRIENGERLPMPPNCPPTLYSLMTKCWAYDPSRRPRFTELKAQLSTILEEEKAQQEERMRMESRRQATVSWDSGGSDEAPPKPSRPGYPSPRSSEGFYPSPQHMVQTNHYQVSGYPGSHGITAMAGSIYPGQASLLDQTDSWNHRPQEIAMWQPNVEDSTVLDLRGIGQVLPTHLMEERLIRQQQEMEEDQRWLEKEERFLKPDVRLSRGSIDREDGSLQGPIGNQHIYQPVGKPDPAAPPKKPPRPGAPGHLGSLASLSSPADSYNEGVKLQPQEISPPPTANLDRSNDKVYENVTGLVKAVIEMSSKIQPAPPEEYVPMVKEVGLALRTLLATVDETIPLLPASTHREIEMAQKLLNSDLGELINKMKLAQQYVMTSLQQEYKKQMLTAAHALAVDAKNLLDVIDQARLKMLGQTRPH

inhibition at 20 µM [1] [%] | inhibition at 10 µM ([2]; compound 10 uM, ATP 2 uM) [%] | CAK % inhib; 20 uM [1] [%] | FAK % Inhib ave: 10 uM ([2]; compound 10 uM, ATP 2 uM) [%] | Compound | inhibition at 10 µM [2] [%]
20.7 | 12.2 |  |  | CN(Cc1ccccc1Nc1ncc2nnn(-c3ccc4c(c3)CCC4)c2n1)C1CCCCC1 [Compound 18, {2-[(Cyclohexyl-methyl-amino)-methyl]-phenyl}-(3-indan-5-yl-3H-[1,2,3]triazolo[4,5-d]pyrimidin-5-yl)-amine] | 
-63.7 | 68.8 |  |  | CCN(CC)CCNC(=O)c1ccc(-n2nnc3cnc(Nc4ccc5c(c4)CCC5)nc32)cc1 [Compound 19, N-(2-Diethylamino-ethyl)-4-[5-(indan-5-ylamino)-[1,2,3]triazolo[4,5-d]pyrimidin-3-yl]-benzamide] | 
12.5 | 13 |  |  | CN(Cc1ccccc1-n1nnc2cnc(Nc3ccc4c(c3)CCC4)nc21)C1CCCCC1 [Compound 20, (3-{2-[(Cyclohexyl-methyl-amino)-methyl]-phenyl}-3H-[1,2,3]triazolo[4,5-d]pyrimidin-5-yl)-indan-5-yl-amine] | 
23.3 | 19 |  |  | CN(Cc1ccccc1Nc1ncc2nnn(-c3ccccc3CN(C)C3CCCCC3)c2n1)C1CCCCC1 [Compound 21, {2-[(Cyclohexyl-methyl-amino)-methyl]-phenyl}-(3-{2-[(cyclohexyl-methyl-amino)-methyl]-phenyl}-3H-[1,2,3]triazolo[4,5-d]pyrimidin-5-yl)-amine] | 
96.9 | 98.9 |  |  | CCN(CC)CCNC(=O)c1ccc(Nc2ncc3nnn(-c4ccc5c(c4)CCC5)c3n2)cc1 [Compound 22, N-(2-Diethylamino-ethyl)-4-(3-indan-5-yl-3H-[1,2,3]triazolo[4,5-d]pyrimidin-5-ylamino)-benzamide] | 
43.5 | 13 |  |  | c1ccc(-c2cccc(Nc3ncc4nnn(-c5ccc6c(c5)CCC6)c4n3)c2)cc1 [Compound 23, Biphenyl-3-yl-(3-indan-5-yl-3H-[1,2,3]triazolo[4,5-d]pyrimidin-5-yl)-amine] | 
21 | 30 |  |  | CCOC(=O)Cc1ccc(Nc2ncc3nnn(-c4ccc5c(c4)CCC5)c3n2)cc1 [Compound 25, [4-(3-Indan-5-yl-3H-[1,2,3]triazolo[4,5-d]pyrimidin-5-ylamino)-phenyl]-acetic acid ethyl ester] | 
25.9 | 13 |  |  | CCOC(=O)c1cccc(Nc2ncc3nnn(-c4ccc5c(c4)CCC5)c3n2)c1 [Compound 26, 3-(3-Indan-5-yl-3H-[1,2,3]triazolo[4,5-d]pyrimidin-5-ylamino)-benzoic acid ethyl ester] | 
21.4 | 74.4 |  |  | CNC(=O)c1cccc(Nc2ncc3nnn(-c4ccc5c(c4)CCC5)c3n2)c1 [Compound 27, 3-(3-Indan-5-yl-3H-[1,2,3]triazolo[4,5-d]pyrimidin-5-ylamino)-N-methyl-benzamide] | 
54.7 | 16 |  |  | CCOC(=O)/C=C/c1ccc(Nc2ncc3nnn(-c4ccc5c(c4)CCC5)c3n2)cc1 [Compound 28, 3-[4-(3-Indan-5-yl-3H-[1,2,3]triazolo[4,5-d]pyrimidin-5-ylamino)-phenyl]-acrylic acid ethyl ester] | 
16.3 | 11 |  |  | c1cc(-c2csnn2)ccc1Nc1ncc2nnn(-c3ccc4c(c3)CCC4)c2n1 [Compound 29, (3-Indan-5-yl-3H-[1,2,3]triazolo[4,5-d]pyrimidin-5-yl)-(4-[1,2,3]thiadiazol-4-yl-phenyl)-amine] | 
38.6 | 30 |  |  | CN(C)CC(O)COc1ccc(Nc2ncc3nnn(C4CCC(C(=O)O)CC4)c3n2)cc1 (stereo not shown) [Compound 30, 4-{5-[4-(3-Dimethylamino-2-hydroxy-propoxy)-phenylamino]-[1,2,3]triazolo[4,5-d]pyrimidin-3-yl}-cyclohexane-carboxylic acid] | 
32.9 | 21.4 |  |  | CN(C)CC(O)COc1ccc(Nc2ncc3nnn(C4CCCC(C(=O)O)C4)c3n2)cc1 (stereo not shown) [Compound 31, 3-{5-[4-(3-Dimethylamino-2-hydroxy-propoxy)-phenylamino]-[1,2,3]triazolo[4,5-d]pyrimidin-3-yl}-cyclohexanecar-boxylic acid] | 
42 | 30.2 |  |  | CCN(CC)CCOC(=O)c1ccc(Nc2ncc3nnn(-c4ccc5c(c4)CCC5)c3n2)cc1 [Compound 32, 4-(3-Indan-5-yl-3H-[1,2,3]triazolo[4,5-d]pyrimidin-5-ylamino)-benzoic acid 2-diethylamino-ethyl ester] | 
 |  | 42.00 | 28.57 | CCN(CC)CCOC(=O)c1ccc(Nc2ncc3nnn(-c4ccc5c(c4)CCC5)c3n2)cc1 [Compound 33, 4-(3-Indan-5-yl-3H-[1,2,3]triazolo[4,5-d]pyrimidin-5-ylamino)-benzoic acid 2-diethylamino-ethyl ester] | 
19 | 25 |  |  | CCCCNS(=O)(=O)c1cccc(-n2nnc3cnc(Nc4cc(OC)c(OC)c(OC)c4)nc32)c1 [Compound 34, N-Butyl-3-[5-(3,4,5-trimethoxy-phenylamino)-[1,2,3]triazolo[4,5-d]pyrimidin-3-yl]-benzene-sulfonamide] | 

Compound | inhibition at 20 µM [1] [%] | inhibition at 10 µM ([2]; compound 10 uM, ATP 2 uM) [%] | CAK % inhib; 20 uM [1] [%] | FAK % Inhib ave: 10 uM ([2]; compound 10 uM, ATP 2 uM) [%] | inhibition at 10 µM [2] [%]
CCOP(=O)(Cc1ccc(Nc2ncc3nnn(-c4ccc5c(c4)CCC5)c3n2)cc1)OCC [Compound 24, [4-(3-Indan-5-yl-3H-[1,2,3]triazolo[4,5-d]pyrimidin-5-ylamino)-benzyl]-phosphonic acid diethyl ester] | 24.7 |  |  |  | 34

— patent US7563781B2, “Triazolopyrimidine derivatives” (Janssen Pharmaceutica NV, priority 2006, dated 2009)
